Results on 1 compound are retold here after patent US20040110771A1, “7-(r)-aminotriazolopyrimidines, the production thereof and use of the same for combatting phytopathogenic fungi” (priority 2000, published 2004).

What all share (type): in vivo
For one experiment, the system named is Puccinia recondita. The experiment is described as follows: Curative activity against brown rust of wheat caused by Puccinia recondita. The conditions noted are these: 250 ppm; curative spray 24 h after inoculation, wheat seedlings "Kanzler", 7 days. The method in brief:
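Wheat seedlings (cv. Kanzler) inoculated with brown rust spores and held 24 h at 90–95% humidity and 20–22°C, then sprayed to runoff with the emulsified compound the next day. Rust development on leaves scored after 7 days in greenhouse at 20–22°C and 65–70% relative humidity.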

A further experiment relates to Pyrenophora teres. The experiment in a line: Activity against net blotch of barley caused by Pyrenophora teres. The conditions noted are these: barley seedlings "Igri", inoculated 24 h after spraying, 6 days. The essentials: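 Potted barley seedlings (cv. Igri) were sprayed to runoff with aqueous compound preparation, then inoculated with P. teres spores 24 h after the spray dried. Plants were kept in a greenhouse at 20-24° C and 95-100% relative humidity, and disease was scored visually after 6 days as % infected leaf area.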

In another experiment the test system is Septoria tritici. The experiment in a line: Protective activity against Septoria foliar blotch disease of wheat caused by Septoria tritici. Particulars: wheat seedlings "Riband", inoculated 24 h after spraying, 2 weeks. The essentials:
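Potted wheat seedlings (cv. Riband) sprayed to runoff with compound emulsion, then inoculated 24 h after drying with Septoria tritici spores at 2.0×10^6 spores/ml. Kept in greenhouse at 18-22° C, humidity near 100%; after 2 weeks, % infected leaf area scored visually.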

Experiment [1] deals with Blumeria graminis forma specialis tritici. The experiment is described as follows: Activity against mildew of wheat caused by Blumeria graminis forma specialis tritici. Particulars: wheat seedlings "Kanzler", dusted with spores 24 h after spraying, 7 days. The essentials:
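Compound, emulsified then diluted in water, sprayed to runoff onto leaves of potted wheat seedlings cv. Kanzler; inoculated with Blumeria graminis f. sp. tritici spores 24 h after the coating dried. Plants kept in greenhouse at 20-24° C., 60-90% relative humidity; mildew scored visually after 7 days as % infected leaf area.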

Turning to `CC(Nc1c(-c2ccccc2Cl)c(Cl)nc2ncnn12)C(C)(C)C` (single isomer, unassigned) [I.-44a], the “% infection of the leaves after application of an aqueous preparation comprising . . . ppm of active compound” value in the experiment on Puccinia recondita turned out to be 60%; with Pyrenophora teres (16 ppm), 60%; with Pyrenophora teres (63 ppm) it was 7%; in the experiment with Septoria tritici (16 ppm), 60%; with Septoria tritici (63 ppm), 7%; in the experiment with Septoria tritici (250 ppm), 7%. For the same compound, the “% infection of the leaves after application of an aqueous preparation comprising . . . ppm of active compound” value came out at 50% in experiment [1] (16 ppm), 30% in experiment [1] (63 ppm) and 30% in experiment [1] (250 ppm).
